Measurements reported in patent US10201590B2, “Treatment of ocular disorders with anti-connexin proteins and mimetics” (CoDa Therapeutics, Inc., priority 2005, dated 2019).
“Also recorded” adds a separate entry of the source.

Experiments:
[1] = target: T1, connexin hemichannels (Rattus norvegicus, UniProt P08050); experiment: Blockage of dye (Lucifer Yellow) uptake by cells in spinal cord slices; type: cell-based; details: 500 micromolar peptide, slices incubated four hours, then Lucifer Yellow 30 minutes
T1 construct: leads to the expression of connexin hemichannels; from tissue; host or cells: rat (Wistar p7) spinal cord, 500 micron slices in culture
Protocol: Two functional tests were carried out using peptides. These functional test were (i) blockage of dye (Lucifer Yellow) uptake by cells in spinal cord slices, and (ii) prevention of oedema in spinal cord segments (using connexin 43 specific antisense as a positive control). All peptides used were synthesised by Sigma-Genosys (Australia).
Lucifer Yellow is a small water soluble, fixable, dye able to pass from cell to cell via gap junction channels, but not across the cell membrane. The addition of Lucifer Yellow to the extracellular medium makes it is possible to check for the presence of open gap junction hemichannels. The dye will appear in the cytoplasm of cells which are expressing open channels.
Wistar p7 rats were anesthetized with carbon dioxide and immediately decapitated. The spinal cord was excised and transferred to cold Hank's balanced salt solution (HBSS) at pH 7.4. Excess branch nerves and ligaments were removed and the cord transferred to a manual tissue chopper and a series of 500 micron thick slices cut. The damage caused by the slicing induces connexin 43 upregulation through the entire slice (exacerbated by the gap junction mediated bystander effect), and leads to the expression of connexin hemichannels. Slices were placed onto 3 cm diameter Millipore inserts in 24 well plates and cultured in the presence of mimetic peptides in the media. The final concentration for all 9 peptides tested was 500 micromolar. Controls were; no peptide added, or with 1% ethanol or 1% DMSO added as some peptides were re-dissolved in these compounds (peptides were received lyophilised). Some slices were also treated at this time with connexin 43 specific antisense oligodeoxynucleotides in 30% Pluronic F-127 gel or with gel only, as control experiments.
Slices were incubated for four hours at 37 degrees C., and then 2.5 mg per ml Lucifer Yellow was added to each well for 30 minutes (in the dark). The tissues were then rinsed twice in PBS, with three further 10 minute washes, and the slices fixed with 4% paraformaldehyde. They were then viewed using a Leica TCS4D laser scanning confocal microscope to assess dye uptake into cells, or not.

[2] = system: spinal cord segments; experiment: Prevention of oedema (swelling) in cultured spinal cord segments; type: cell-based, rat; details: for % swelling of cord segments: 500 micromolar peptide, 24 hours, control segments 21-23%
Protocol: FIGS. 1A and 1B show rat spinal cord segments 24 hours after placing into organotypic culture. In the control cord (FIG. 1A) significant swelling is observed at the cut ends (dotted lines mark the original cuts).
In both cases, the oedema can be blocked using antisense oligodexoynucleotides (ODNs) which prevent translation of the gap junction protein Connexin 43 (FIG. 1B).
The system described in Example 1 was used to examine the effects of the peptides VDCFLSRPTEKT (SEQ ID NO:35) and SRPTEKTIFII (SEQ ID NO:36) on cultured spinal cord segments to test their ability to block swelling.
The peptide QQPGCENVCYDK (SEQ ID NO:39) was used a negative control because it allowed dye uptake in the slice cultures described above, and was thus believed to not be able to block oedema in the segments. DMSO was again used as an additional control.
5 mm long spinal cord segments were placed in separate wells of a 24 well plate in HBSS. The segments were held to the bottom of the well using a small drop of Superglue. The HBSS was removed and 500 micromolar peptide (final concentration) added to media (no peptide for media alone or DMSO controls). The plates were incubated for 24 hours, the media removed and the tissue fixed with Bouin's fixative for 24 hours. Analysis involved photographing cord segments from above, with Image J used to calculate the total area of the cord segment compared with the area of swelling at the cut ends of the segments. Swelling (oedema) was calculated as (cultured area−original area divided by original area) to give % swelling. Single factor Analysis of Variance was used to determine statistical significance, with cut-off level for significance at p=0.05.
In this case a dose response was determined with final concentration of peptides used at 5, 10, 50 250 and 500 micromolar.

[3] = system: glial fibrillary acidic protein (GFAP) expression; experiment: Immunohistochemical analysis of GFAP (astrocytosis) in spinal cord segments; type: cell-based, rat; details: for Area of GFAP label: 24 hours, control 2450
Protocol: Table 7: Areas of GFAP label in images taken in spinal cord 24 hours after slicing. Control cords have high levels of GFAP indicating an inflammatory response and greater bystander effect than the treated segments.

[4] = system: connexin 43 hemichannels; experiment: Perinatal sheep model of cerebral ischaemia, i.c.v. infusion of mimetic peptide; type: in vivo
Protocol: The infusion in these animals was continued until 72 h after ischaemia. […] Seizures resolved by approximately 48 h.
Dosages of about 5 μmol/kg brain, 50 μmol/kg and 250 μmol/kg brain weight are also possible. For intravenous (systemic delivery) the effect of log-order increases in plasma concentrations can be used to determine an appropriate dose, starting with loading doses to achieve 0.5 μmol/L (mean fetal blood volume is approximately 350 ml in our perinetal sheep at this age), then 5, 10, 50, 250, 500 and 5000 μM.
A Romney-Suffolk cross fetal sheep was instrumented between 117 to 124 days of gestation (0.85 term) under general anaesthesia as described elsewhere in detail (Gerrits et al, Pediatr Res 57(3):342-6, (2005); Guan et al., Neuroscience 95(3):831-839, (1999); Guan et al., J Cereb Blood Flow Metab 21(5):493-502, (2001); Gunn et al., J Clin Invest 99(2):248-256, (1997), Gunn et al., Pediatrics 102(5):1098-1106, (1998), Gunn et al., Pediatr Res 46(3):274-280, (1999); Roelfsema et al., J Cereb Blood Flow Metab 24(8):877-886, (2004)). Instrumentation included brachial artery and vein catheters, EKG electrodes, an inflatable occluder around a fetal carotid artery (Gunn et al., 1997; Roelfsema et al., 2004), parietal EEG electrodes 5 and 15 mm anterior, and 10 mm lateral to bregma, a pair of electrodes placed lateral to these to measure cortical impedance (a measure of cytotoxic oedema (Gunn et al., 1997) and a 17-mm-long left i.c.v. cannula 4 mm anterior and 6 mm lateral to bregma. The instrumentation was exteriorised to the maternal flank, uterine and abdominal walls closed, and fetal vascular catheters heparinised (20 IU/ml). The maternal wound was infiltrated with a long acting local anaesthetic bupivacaine (100 mg/20 ml).
After 5 days recovery, fetal cerebral hypoperfusion was induced by a 30 minute period of bilateral carotid artery occlusion (Gunn et al., 1997; Roelfsema et al., 2004; Tan et al., Ann Neurol 32(5):677-682, (1992); Tan et al., Pediatr Res 39(5):791-797, (1996)). […]

[5] = near-term fetal sheep, i.c.v. infusion from 90 min after 30 min ischaemia until 72 h

T1 sequence (P08050 2-382): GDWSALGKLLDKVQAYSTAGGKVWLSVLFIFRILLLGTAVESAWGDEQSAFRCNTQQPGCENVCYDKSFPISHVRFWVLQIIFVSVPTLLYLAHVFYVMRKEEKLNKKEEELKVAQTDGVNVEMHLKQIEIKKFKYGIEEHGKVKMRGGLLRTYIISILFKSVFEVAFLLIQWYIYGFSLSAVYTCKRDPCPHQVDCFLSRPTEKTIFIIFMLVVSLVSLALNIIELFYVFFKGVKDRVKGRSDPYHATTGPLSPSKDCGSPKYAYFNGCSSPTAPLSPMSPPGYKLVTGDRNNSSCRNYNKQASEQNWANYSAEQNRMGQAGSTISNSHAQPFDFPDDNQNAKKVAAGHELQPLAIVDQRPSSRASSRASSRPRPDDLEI

With “LLIQWYIGFSL [connexin 43 mimetic peptide, E2]” the “dye (Lucifer Yellow) uptake / block of hemichannels” value (shortened to “dye (Lucifer Yellow) uptake / block”) [1] was “comparable with control slices”.
“VCYDKSFPISHVR [connexin 43 mimetic peptide, E1]” was tested, and the “dye (Lucifer Yellow) uptake / block” value [1] was “comparable with control slices”.
“SRPTEKTIFII [connexin 43 mimetic peptide, E2 & M4]” was tested, and the “dye (Lucifer Yellow) uptake / block” value [1] was “block hemichannels”, the “dye (Lucifer Yellow) uptake / block” value ([1]; listed as SEQ ID NO: 36) was “capable of preventing and/or blocking and/or closing the opening of the hemichannels” and the “blocking of oedema at middle range concentration” value ([2]; 50 micromolar, repeat experiments) was “somewhat less effective”. For the same sequence, the “% swelling of cord segments” value [2] was 17%, the “most effective concentration for blocking of oedema (least oedema)” value ([2]; dose response 5, 10, 50 250 and 500 micromolar, vs media alone p=0.001) was 5 µM and the “Area of GFAP label” value ([3]; 5 micromolar) was 300 square units. For the same sequence, the “Area of GFAP label” value ([3]; 50 micromolar) was 950 square units, the “Area of GFAP label” value ([3]; 250 micromolar) was 1000 square units and the “Area of GFAP label” value ([3]; 500 micromolar) was 750 square units. For the same sequence, the “astrocytosis (GFAP expression)” value ([3]; 24 hours in culture) was “reduced astrocytosis”, the “most effective concentration at preventing the inflammatory response (GFAP)” value ([3]; 24 hours in culture) was 5 µM and the “effect in perinatal sheep experiment” value ([4]; 5 μmol/kg brain weight in 1 ml artificial CSF i.c.v. over one hour, then 1 ml per day for 72 hours) was “significant effect”. The “cortical impedance (cell swelling, cytotoxic oedema)” value [4, 5] was “markedly delayed and attenuated rise in cerebral impedance” and the “seizures after cerebral ischaemia” value [4, 5] was “changed seizures from continuous to a later onset of discrete, separate seizure events”.
For “QQPGCENVCYDK [connexin 43 mimetic peptide, E1; used as negative control]”, the “dye (Lucifer Yellow) uptake / block” value [1] was “comparable with control slices; also recorded: did not block hemichannels” and the “% swelling of cord segments” value [2] was 23%.
In the case of “FEVAFLLIQWI [connexin 43 mimetic peptide, M3 & E2]”, the “dye (Lucifer Yellow) uptake / block” value [1] was “comparable with control slices”.
For “SLSAVYTCKRDPCPHQ [connexin 43 mimetic peptide, E2]”, the “dye (Lucifer Yellow) uptake / block” value [1] was “comparable with control slices”.
For “VDCFLSRPTEKT [connexin 43 mimetic peptide, E2]”, the “dye (Lucifer Yellow) uptake / block” value [1] was “block hemichannels”, the “dye (Lucifer Yellow) uptake / block” value ([1]; listed as SEQ ID NO: 35) was “capable of preventing and/or blocking and/or closing the opening of the hemichannels” and the “% swelling of cord segments” value [2] was 15%.
“QSAFRCNTQQPG [connexin 43 mimetic peptide, E1]” was tested, and the “dye (Lucifer Yellow) uptake / block” value [1] was “comparable with control slices”.
With “LGTAVESAWGDEQ [connexin 43 mimetic peptide, M1 & E1]” the “dye (Lucifer Yellow) uptake / block” value [1] was “comparable with control slices”.
